DC50 data for ten molecules are collected here from patent US20230416242A1, “DOUBLE DEGRADERS AND USES THEREOF” (Kymera Therapeutics, Inc., priority 2020, published 2023).

The structures appear in SMILES notation.

The target of the assay is T1, IRAK4 (Homo sapiens, UniProt Q9NWZ3).
T1 construct: endogenous in cells; host or cells: OCI-LY10
T1 sequence (Q9NWZ3 1-460): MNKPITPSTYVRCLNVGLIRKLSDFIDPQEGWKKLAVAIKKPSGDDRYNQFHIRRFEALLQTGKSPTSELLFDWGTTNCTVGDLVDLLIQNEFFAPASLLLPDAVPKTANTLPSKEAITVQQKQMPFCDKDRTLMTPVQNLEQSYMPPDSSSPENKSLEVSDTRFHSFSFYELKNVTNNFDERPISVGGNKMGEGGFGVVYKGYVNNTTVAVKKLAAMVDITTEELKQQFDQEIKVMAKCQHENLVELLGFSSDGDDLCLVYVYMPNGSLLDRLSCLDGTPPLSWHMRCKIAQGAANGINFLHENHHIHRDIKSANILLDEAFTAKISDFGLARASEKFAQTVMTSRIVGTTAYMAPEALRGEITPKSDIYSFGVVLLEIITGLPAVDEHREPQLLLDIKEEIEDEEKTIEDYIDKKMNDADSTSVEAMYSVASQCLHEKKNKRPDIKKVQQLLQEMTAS
As to the kind of experiment: IRAK4 MSD degradation in OCI-LY10. The settings on record: OCI-LY10 cells, 24 hrs, Meso Scale Discovery. Format: cell-based. The protocol: Degradation of IRAK4 in OCI-LY10 was quantitatively measured using Meso Scale Discovery technology. OCI-LY10 cells were seeded in 96-well plates (Coming 3799) with a density of 300,000 cells per well in 100 μL fresh media. Compounds were then added to the assay plates with a final top concentration of 1 to 10 μM in a 1:3 dilution series with total of 8 doses. The assay plates were then incubated for 4 to 24 hours at 37° C. under 5% CO2. The assay plates were then centrifuged for 5 minutes and the cell pellets were treated with 100 μL/well RIPA lysis buffer (Boston BioProducts BP-115D) with proteinase inhibitors. To prepare MSD assay plates (Meso Scale Discovery Catalog number L15XA-3), the plates were coated with […] capture antibody (mouse Anti-IRAK4 antibody [2H9], ab119942) in PBS, at 40 μL/well. The plates were then incubated overnight at 4° C., washed 3 times with 150 μL/well TBST buffer (Cell Signaling Technology, Catalog number 9997S) and blocked with 150 μL/well blocking buffer (Meso Scale Discovery Catalog number R93BA-4). Cell lysates were then added to MSD assay plates and the plates were incubated at room temperature for 1 hour. The plates were then washed 3 times with 150 µL/well TBST buffer and 25 μL/well primary detection antibody (rabbit Anti-IRAK4 antibody [Y279], from Abcam. Catalog number ab32511, 1 μg/mL). The assay plates were then incubated at room temperature for 1 hour, washed 3 times with 150 μL/well TBST buffer and 25 μL/well secondary detection antibody, SULFO-TAG anti-rabbit antibody were added (anti rabbit antibody from Meso Scale Discovery, Catalog number R32AB-1, 1 μg/mL). The assay plates were then incubated at room temperature for 1 hour, washed 3 times with 150 μL/well TBST buffer, and 150 μL/well MSD reading buffer (Meso Scale Discovery catalog number R92TC-2) was added. The plates were then analyzed by a MSD reader (Meso Scale Discovery, Model Quick Plex SQ 120). The data was then analyzed by software Prism 7.0 from GraphPad and the dose-depended IRAK4 degradation were fit using a three-parameter logistic equation to calculate DC50.
The letter codes for IRAK4 DC50 include: A (<1 μM); B (1-10 μM); and C ([…]).

For the molecule `CC(C)(O)c1cc2nc([C@H]3CC[C@H](CN4CC5(CC(C(CNc6cccc7c6C(=O)N(C6CCC(=O)NC6=O)C7=O)CN6CCC(c7ccc(Nc8nc(N9CCCCC9)cnc8C(N)=O)cc7)CC6)C5)C4)CC3)sc2cc1NC(=O)c1cccc(C(F)(F)F)n1` (stereo partly shown) [Compound I-7], the DC50 was in the range of 1 to 10 µM.
The molecule `Cn1c(=O)n(C2CCC(=O)NC2=O)c2cccc(CCCCN(CCNC(=O)[C@H]3CC[C@H](n4cc5cc(NC(=O)c6cccc(C(F)(F)F)n6)c(C(C)(C)O)cc5n4)CC3)CC(=O)N3CCC(c4ccc(Nc5nc(N6CCCCC6)cnc5C(N)=O)cc4)CC3)c21` (stereo partly shown) [Compound I-15] showed a DC50 of under 1 µM.
For the molecule `NC(=O)c1ncc(N2CCCCC2)nc1Nc1ccc(C2CCN(CCCCN(CCC3CCN(C[C@H]4CC[C@H](n5cc(NC(=O)c6cnn7ccc(N8CCOCC8)nc67)c(C(F)F)n5)CC4)CC3)c3cccc4c3C(=O)N(C3CCC(=O)NC3=O)C4=O)CC2)cc1` (stereo partly shown) [Compound I-6], the DC50 lay in the range of 1 to 10 µM.
As for `CC(C)(O)c1cc2nn([C@H]3CC[C@H](CN4CCC(CCN(CCCCN5CCC(c6ccc(Nc7nc(N8CCCCC8)cnc7C(N)=O)cc6)CC5)c5cccc6c5C(=O)N(C5CCC(=O)NC5=O)C6=O)CC4)CC3)cc2cc1NC(=O)c1cccc(C(F)(F)F)n1` (stereo partly shown) [Compound I-4], the DC50 is under 1 µM.
As for `Cc1ncsc1-c1ccc(CNC(=O)[C@@H]2C[C@@H](O)CN2C(=O)[C@@H](NC(=O)COCCOCCN2CCC(c3ccc(Nc4nc(N5CCCCC5)cnc4C(N)=O)cc3)CC2)C(C)(C)C)c(OCCOCCN(C)C[C@H]2CC[C@H](n3cc4cc(NC(=O)c5cccc(C(F)(F)F)n5)c(C(C)(C)O)cc4n3)CC2)c1` [Compound I-17], the figure is 1 to 10 µM.
Turning to `CC(C)(O)c1cc2nc([C@H]3CC[C@H](CN4CCC(CCN(CCCCN5CCC(c6ccc(Nc7nc(N8CCCCC8)cnc7C(N)=O)cc6)CC5)c5cccc6c5C(=O)N(C5CCC(=O)NC5=O)C6=O)CC4)CC3)sc2cc1NC(=O)c1cccc(C(F)(F)F)n1` (stereo partly drawn) [Compound I-5, 3-((4-(1-(4-((2-(2,6-Dioxopiperidin-3-yl)-1,3-dioxoisoindolin-4-yl)(2-(1-(((1R,4R)-4-(5-(2-hydroxypropan-2-yl)-6-(6-(trifluoromethyl)picolinamido)benzo[d]thiazol-2-yl)cyclohexyl)methyl)piperidin-4-yl)ethyl)amino)butyl)piperidin-4-yl)phenyl)amino)-5-(piperidin-1-yl)pyrazine-2-carboxamide], the DC50 is under 1 µM.
Under `CC(C)(O)c1cc2nn([C@H]3CC[C@H](CN4CC5(CC(C(CNc6cccc7c6C(=O)N(C6CCC(=O)NC6=O)C7=O)CN6CCC(c7ccc(Nc8nc(N9CCCCC9)cnc8C(N)=O)cc7)CC6)C5)C4)CC3)cc2cc1NC(=O)c1cccc(C(F)(F)F)n1` (stereo partly shown) [Compound I-8] stands under 1 µM.
The molecule `Cn1c(=O)n(C2CCC(=O)NC2=O)c2cccc(CCCCN(CCNC(=O)[C@H]3CC[C@H](n4cc5cc(NC(=O)c6cccc(C(F)(F)F)n6)c(C(C)(C)O)cc5n4)CC3)CC(=O)N3CC(N4CCC(c5ccc(Nc6nc(N7CCCCC7)cnc6C(N)=O)cc5)CC4)C3)c21` (stereo partly drawn) [Compound I-14, 3-((4-(1-(1-(2-((4-(1-(2,6-Dioxopiperidin-3-yl)-3-methyl-2-oxo-2,3-dihydro-1H-benzo[d]imidazole-4-yl)butyl)(2-((1R,4R)-4-(6-(2-hydroxypropan-2-yl)-5-(6-(trifluoromethyl)picolinamido)-2H-indazol-2-yl)cyclohexanecarboxamido)ethyl)amino)acetyl)azetidin-3-yl)piperidin-4-yl)phenyl)amino)-5-(piperidin-1-yl)pyrazine-2-carboxamide] had a DC50 of under 1 µM.
As for `Cc1ncsc1-c1ccc(CNC(=O)[C@@H]2C[C@@H](O)CN2C(=O)[C@@H](NC(=O)COCCOCCN2CCN(C(=O)c3ccc(Nc4nc(-c5cccc(NC(=O)c6ccc(C(C)(C)C)cc6)c5C)cn(C)c4=O)cc3)CC2)C(C)(C)C)c(OCCOCCN(C)C[C@H]2CC[C@H](n3cc4cc(NC(=O)c5cccc(C(F)(F)F)n5)c(C(C)(C)O)cc4n3)CC2)c1` [Compound I-18], the figure is 1 to 10 µM; as for `NC(=O)c1ncc(N2CCCCC2)nc1Nc1ccc(C2CCN(CC(CNc3cccc4c3C(=O)N(C3CCC(=O)NC3=O)C4=O)C3CC4(C3)CN(C[C@H]3CC[C@H](n5cc(NC(=O)c6cnn7ccc(N8CCOCC8)nc67)c(C(F)F)n5)CC3)C4)CC2)cc1` (stereo partly shown) [Compound I-9], under 1 µM.

As a reminder, the DC50 is the concentration giving 50% degradation. Higher therefore signals degradation only at high concentration.
